Assay results: patent US20220119354A1, “DIAMINO-SUBSTITUTED PYRIDINES AND PYRIMIDINES AS HERBICIDES” (FMC Corporation, priority 2019, published 2022)

Tests used:
Type in all cases: in vivo
[1] = system: barnyardgrass (Echinochloa crus-galli); test: Test A preemergence, barnyardgrass; conditions: 0 to 100 scale, 0 is no effect, 100 is complete control
Procedure, shortened: (§1)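 Compound, in a non-phytotoxic solvent blend containing surfactant, is sprayed onto soil immediately after sowing or onto young plants (one- to two-leaf, 2–10 cm). After roughly 10 d under greenhouse conditions, injury is judged by eye relative to untreated plants on a 0–100 control scale.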

kochia (Kochia scoparia) [2] = test: Test A preemergence, kochia; conditions: 0 to 100 scale, 0 is no effect, 100 is complete control
Procedure, shortened: as §1

[3] = system: ragweed (common ragweed, Ambrosia elatior); test: Test A preemergence, ragweed; conditions: 0 to 100 scale, 0 is no effect, 100 is complete control
Procedure, shortened: as §1

[4] = system: ryegrass, Italian (Lolium multiflorum); test: Test A preemergence, Italian ryegrass; conditions: 0 to 100 scale, 0 is no effect, 100 is complete control
Procedure, shortened: as §1

[5] = system: foxtail, giant (Setaria faberii); test: Test A preemergence, giant foxtail; conditions: 0 to 100 scale, 0 is no effect, 100 is complete control
Procedure, shortened: as §1

[6] = system: pigweed (Amaranthus retroflexus); test: Test A preemergence, pigweed; conditions: 0 to 100 scale, 0 is no effect, 100 is complete control
Procedure, shortened: as §1

[7] = system: barnyardgrass (Echinochloa crus-galli); test: Test A postemergence, barnyardgrass; conditions: 0 to 100 scale, 0 no effect, 100 complete control
Procedure, shortened: as §1

kochia (Kochia scoparia) [8] = test: Test A postemergence, kochia; conditions: 0 to 100 scale, 0 no effect, 100 complete control
Procedure, shortened: as §1

[9] = system: ragweed (common ragweed, Ambrosia elatior); test: Test A postemergence, ragweed; conditions: 0 to 100 scale, 0 no effect, 100 complete control
Procedure, shortened: as §1

[10] = system: ryegrass, Italian (Lolium multiflorum); test: Test A postemergence, Italian ryegrass; conditions: 0 to 100 scale, 0 no effect, 100 complete control
Procedure, shortened: as §1

[11] = system: foxtail, giant (Setaria faberii); test: Test A postemergence, giant foxtail; conditions: 0 to 100 scale, 0 no effect, 100 complete control
Procedure, shortened: as §1

[12] = system: pigweed (Amaranthus retroflexus); test: Test A postemergence, pigweed; conditions: 0 to 100 scale, 0 no effect, 100 complete control
Procedure, shortened: as §1

[13] = system: wheat (Triticum aestivum); test: Test A postemergence, wheat; conditions: 0 to 100 scale, 0 no effect, 100 complete control
Procedure, shortened: as §1

corn (Zea mays) = test: Test A postemergence, corn; conditions: 0 to 100 scale, 0 no effect, 100 complete control
Procedure, shortened: as §1

[14] = system: blackgrass (Alopecurus myosuroides); test: Test A postemergence, blackgrass; conditions: 0 to 100 scale, 0 no effect, 100 complete control
Procedure, shortened: as §1

[15] = system: galium (catchweed bedstraw, Galium aparine); test: Test A postemergence, galium; conditions: 0 to 100 scale, 0 no effect, 100 complete control
Procedure, shortened: as §1

rice (Oryza sativa) = test: Test B flooded paddy test, rice; conditions: Flood, 250 g ai/ha, applied to paddy water, 2-leaf stage, visual evaluation after 13 to 15 d
Procedure, shortened: (§2)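 Rating: 0 = no effect, 100 = complete control, visual, relative to untreated plants. Conditions: 2-leaf stage, 3 cm flood kept constant, compound put directly into water, 13–15 d greenhouse.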

[16] = system: sedge, umbrella (small-flower umbrella sedge, Cyperus difformis); test: Test B flooded paddy test, umbrella sedge; conditions: Flood, 250 g ai/ha, applied to paddy water, 2-leaf stage, visual evaluation after 13 to 15 d
Procedure, shortened: as §2

[17] = system: ducksalad (Heteranthera limosa); test: Test B flooded paddy test, ducksalad; conditions: Flood, 250 g ai/ha, applied to paddy water, 2-leaf stage, visual evaluation after 13 to 15 d
Procedure, shortened: as §2

[18] = system: barnyardgrass (Echinochloa crus-galli); test: Test B flooded paddy test, barnyardgrass; conditions: Flood, 250 g ai/ha, applied to paddy water, 2-leaf stage, visual evaluation after 13 to 15 d
Procedure, shortened: as §2

| Compound | Barnyardgrass plant response rating ([1]; 125 g ai/ha) | Barnyardgrass plant response rating ([1]; 500 g ai/ha) | Kochia plant response rating (kochia (Kochia scoparia) [2]; 125 g ai/ha) | Kochia plant response rating (kochia (Kochia scoparia) [2]; 500 g ai/ha) | Ragweed plant response rating ([3]; 125 g ai/ha) | Ragweed plant response rating ([3]; 500 g ai/ha) | Ryegrass, Italian plant response rating ([4]; 125 g ai/ha) | Ryegrass, Italian plant response rating ([4]; 500 g ai/ha) | Foxtail, Giant plant response rating ([5]; 125 g ai/ha) | Foxtail, Giant plant response rating ([5]; 500 g ai/ha) | Pigweed plant response rating ([6]; 125 g ai/ha) | Pigweed plant response rating ([6]; 500 g ai/ha) | Plant response rating, Barnyardgrass ([7]; 125 g ai/ha) | Plant response rating, Barnyardgrass ([7]; 500 g ai/ha) | Plant response rating, Kochia (kochia (Kochia scoparia) [8]; 125 g ai/ha) | Plant response rating, Kochia (kochia (Kochia scoparia) [8]; 500 g ai/ha) | Plant response rating, Ragweed ([9]; 125 g ai/ha) | Plant response rating, Ragweed ([9]; 500 g ai/ha) | Plant response rating, Ryegrass, Italian ([10]; 125 g ai/ha) | Plant response rating, Ryegrass, Italian ([10]; 500 g ai/ha) | other results |
| --- | --- | --- | --- | --- | --- | --- | --- | --- | --- | --- | --- | --- | --- | --- | --- | --- | --- | --- | --- | --- | --- |
| Cc1nc(NC(C)c2coc3ccccc23)nc(N)c1C(F)(F)F (stereo not drawn) [Compound 106] | 0 | 0 | 80 | 90 | 60 | 100 | 0 | 30 | 0 | 50 | 30 | 100 | 0 | 30 | 80 | 90 | 20 | 100 | 0 | 0 | Plant response rating, Foxtail, Giant ([11]; 125 g ai/ha): 0; Plant response rating, Foxtail, Giant ([11]; 500 g ai/ha): 0; Plant response rating, Pigweed ([12]; 125 g ai/ha): 70; Plant response rating, Pigweed ([12]; 500 g ai/ha): 100; Plant response rating, Wheat ([13]; 125 g ai/ha): 0; Plant response rating, Wheat ([13]; 500 g ai/ha): 0; Plant response rating, Corn (corn (Zea mays); 125 g ai/ha): 0; Plant response rating, Corn (corn (Zea mays); 500 g ai/ha): 0; Plant response rating, Blackgrass ([14]; 125 g ai/ha): 0; Plant response rating, Blackgrass ([14]; 500 g ai/ha): 0; Plant response rating, Galium ([15]; 125 g ai/ha): 70; Plant response rating, Galium ([15]; 500 g ai/ha): 80; Plant response rating, Rice (0 to 100 scale, 0 is no effect, 100 is complete control) (rice (Oryza sativa)): 0; Plant response rating, Sedge, Umbrella (0 to 100 scale, 0 is no effect, 100 is complete control) [16]: 0; Plant response rating, Ducksalad (0 to 100 scale, 0 is no effect, 100 is complete control) [17]: 0; Plant response rating, Barnyardgrass (0 to 100 scale, 0 is no effect, 100 is complete control) [18]: 0 |
| CC(=O)c1cnc(NC(C)c2cc3ccccc3s2)nc1N (stereo not drawn) [Compound 57] | 0 | 70 | 0 | 60 | 60 | 100 | 20 | 50 | 30 | 90 | 30 | 100 | 0 | 70 | 0 | 60 | 40 | 70 | 0 | 60 | Plant response rating, Foxtail, Giant ([11]; 125 g ai/ha): 0; Plant response rating, Foxtail, Giant ([11]; 500 g ai/ha): 50; Plant response rating, Pigweed ([12]; 125 g ai/ha): 60; Plant response rating, Pigweed ([12]; 500 g ai/ha): 80; Plant response rating, Wheat ([13]; 125 g ai/ha): 0; Plant response rating, Wheat ([13]; 500 g ai/ha): 20; Plant response rating, Corn (corn (Zea mays); 125 g ai/ha): 0; Plant response rating, Corn (corn (Zea mays); 500 g ai/ha): 20; Plant response rating, Blackgrass ([14]; 125 g ai/ha): 0; Plant response rating, Blackgrass ([14]; 500 g ai/ha): 10; Plant response rating, Galium ([15]; 125 g ai/ha): 60; Plant response rating, Galium ([15]; 500 g ai/ha): 80; Plant response rating, Rice (0 to 100 scale, 0 is no effect, 100 is complete control) (rice (Oryza sativa)): 0; Plant response rating, Sedge, Umbrella (0 to 100 scale, 0 is no effect, 100 is complete control) [16]: 80; Plant response rating, Ducksalad (0 to 100 scale, 0 is no effect, 100 is complete control) [17]: 30; Plant response rating, Barnyardgrass (0 to 100 scale, 0 is no effect, 100 is complete control) [18]: 0 |
